Test results reported in ChEMBL document CHEMBL4152235, “Synthesis, anionophoric activity and apoptosis-inducing bioactivity of benzimidazolyl-based transmembrane anion transporters” (Eur J Med Chem, 2018).
Calls of active or inactive are those of the source. The rule behind the calls is not given here.

Legend:
HepG2 [1] = test: Cytotoxicity against human HepG2 cells assessed as reduction in cell viability at 50 uM after 48 hrs by MTT assay relative to control; assay type: functional; conditions: HepG2, 48 h
A549 [2] = test: Cytotoxicity against human A549 cells assessed as reduction in cell viability after 48 hrs by MTT assay; assay type: functional, cell-based; conditions: A549, 48 h
A549 [3] = test: Cytotoxicity against human A549 cells assessed as reduction in cell viability at 50 uM after 48 hrs by MTT assay relative to control; assay type: functional; conditions: A549, 48 h
MCF7 [4] = test: Cytotoxicity against human MCF7 cells assessed as reduction in cell viability after 48 hrs by MTT assay; assay type: functional, cell-based; conditions: MCF7, 48 h
MCF7 [5] = test: Cytotoxicity against human MCF7 cells assessed as reduction in cell viability at 50 uM after 48 hrs by MTT assay relative to control; assay type: functional; conditions: MCF7, 48 h
HeLa [6] = test: Cytotoxicity against human HeLa cells assessed as reduction in cell viability after 48 hrs by MTT assay; assay type: functional, cell-based
HeLa [7] = test: Cytotoxicity against human HeLa cells assessed as reduction in cell viability at 50 uM after 48 hrs by MTT assay relative to control; assay type: functional
L02 = test: Cytotoxicity against human LO2 cells assessed as reduction in cell viability after 48 hrs by MTT assay; assay type: cell-based; conditions: L02, 48 h
HepG2 [8] = test: Cytotoxicity against human HepG2 cells assessed as reduction in cell viability after 48 hrs by MTT assay; assay type: functional, cell-based; conditions: HepG2, 48 h
[9] = (§1) Ionophoric activity across pyranine dye encapsulated pH 7 egg yolk L-alpha-phosphatidylcholine-based liposomal membranes assessed as chloride ion transport by measuring initial rate constant for induction of pH discharge at 2.50 x 10^-1 mol% after 20 mins in presence of NaCl loaded external vesicles by fluorescence method (reference value: 5.03 +/- 1.02 10^-3/min)
[10] = Ionophoric activity across pyranine dye encapsulated pH 7 egg yolk L-alpha-phosphatidylcholine-based liposomal membranes assessed as chloride ion transport by measuring induction of pH discharge after 20 mins in presence of NaCl loaded external vesicles by fluorescence method relative to m-Bimbe
[11] = as §1, with “1.25” for “2.50”
[12] = Ionophoric activity across pyranine dye encapsulated pH 7 egg yolk L-alpha-phosphatidylcholine-based liposomal membranes assessed as chloride ion transport by measuring induction of pH discharge after 20 mins in presence of NaCl loaded external vesicles by fluorescence method
[13] = as §1, with “6.25” for “2.50”, “10^-2” for “10^-1”
HeLa [14] = test: Ionophoric activity across human HeLa cells assessed as chloride ion efflux up to 10 uM after 2 hrs by MQAE dye based fluorescence assay; assay type: cell-based
[15] = as §1, with “3.13” for “2.50”, “10^-2” for “10^-1”
MCF7 [16] = test: Ionophoric activity across human MCF7 cells assessed as chloride ion efflux up to 10 uM after 2 hrs by MQAE dye based fluorescence assay; assay type: cell-based
[17] = as §1, with “7.81” for “2.50”, “10^-3” for “10^-1”
HeLa [18] = test: Ionophoric activity across human HeLa cells assessed as chloride ion efflux at 10 uM after 3 hrs by acridine orange staining based fluorescence microscopic analysis; assay type: cell-based
[19] = as §1, with “1.56” for “2.50”, “10^-2” for “10^-1”
[20] = Binding affinity to chloride ion at 1.5 x 10^-5M using tetra(n-butyl)ammonium chloride measured after 5 mins by spectrophotometric titration method
[21] = Binding affinity to chloride ion assessed as 1:1 compound-Cl- complex formation at 4.1 mM using tetra(n-butyl)ammonium chloride by ESI MS spectrometric method
[22] = Binding affinity to chloride ion at 1.5 x 10^-5M using tetra(n-butyl)ammonium chloride measured after 2 mins by spectrophotometric titration method

Row | fold change (FC) [10] | EC50 [12] | EC50 ([12]; read-out: EC50) [µM] | Compound | inhibition at 50 µM (HepG2 [1]) [%] | IC50 (A549 [2]) [µM] | inhibition at 50 µM (A549 [3]) [%] | IC50 (MCF7 [4]) [µM] | inhibition at 50 µM (MCF7 [5]) [%] | IC50 (HeLa [6]) [µM] | inhibition at 50 µM (HeLa [7]) [%] | IC50 (L02) [µM] | IC50 (HepG2 [8]) [µM] | also measured
1 |  |  |  | Brc1ccc2nc(-c3cccc(-c4nc5ccc(Br)cc5[nH]4)c3)[nH]c2c1 | 93.1 | 21.9 | 92.6 | 9.7 | 93.5 | 21.1 | 98 | 17.8 | 12.1 | 
2 |  |  |  | Cn1c(-c2cccc(-c3nc4ccccc4n3C)c2)nc2ccccc21 | 49.1 |  | 22.2 |  | 23.3 |  | 43.2 |  |  | 
3 | 43 | 0.15 mol% | 1.99 | COc1cc(-c2nc3ccc(C(F)(F)F)cc3[nH]2)cc(-c2nc3ccc(C(F)(F)F)cc3[nH]2)c1 | 101 | 8.1 | 100 | 11.9 | 98.9 | 8.4 | 91.8 | 10.1 | 10.7 | K [9]: 1.47 ×10⁻¹ /min; K [11]: 1.16 ×10⁻¹ /min; Activity [12]: Dose-dependent effect; K [13]: 8.52 ×10⁻² /min; Activity (HeLa [14]): Active; K [15]: 6.31 ×10⁻² /min; Activity (MCF7 [16]): Active; K [17]: 3.23 ×10⁻² /min; Activity (HeLa [18]): Active; K [19]: 4.33 ×10⁻² /min; Ka [20]: 3.53 ×10³ /M; Activity [21]: Active
4 |  |  |  | Fc1ccc2nc(-c3cccc(-c4nc5ccc(F)cc5[nH]4)c3)[nH]c2c1 | 78.9 | > 100 | 33.6 | > 100 | 26.4 | 11.6 | 83.5 | 20.8 | 17.3 to 17.4 | 
5 | 20 | 0.32 mol% | 4.24 | COc1cc(-c2nc3ccc([N+](=O)[O-])cc3[nH]2)cc(-c2nc3ccc([N+](=O)[O-])cc3[nH]2)c1 | 96.7 | 18.5 | 67.7 | 17.1 | 96.3 | 1 | 85.3 | 26.3 | 8.9 | Activity [12]: Dose-dependent effect; Ka [20]: 1.56 ×10³ /M; Activity [21]: Active
6 |  | 6.47 mol% | 85.8 | c1cc(-c2nc3ccccc3[nH]2)cc(-c2nc3ccccc3[nH]2)c1 | 69.5 | 38.5 | 91.1 | > 100 | 31.9 | 8.5 | 96.5 | 19.9 | 20.6 | Ka [22]: 2.48 ×10³ /M; Activity (HeLa [14]): Active; Activity (MCF7 [16]): Active; Activity (HeLa [18]): Active; Activity [21]: Active
7 | 790 | 8.19 ×10⁻³ mol% | 0.11 | O=[N+]([O-])c1ccc2nc(-c3cccc(-c4nc5ccc([N+](=O)[O-])cc5[nH]4)c3)[nH]c2c1 | 15.4 |  | 52.1 |  | 47.4 |  | 59.2 |  |  | Ka [22]: 2.22 ×10³ /M
8 |  |  |  | COc1cccc2c1C(=O)c1c(O)c3c(c(O)c1C2=O)C[C@@](O)(C(=O)CO)C[C@@H]3O[C@H]1C[C@H](N)[C@H](O)[C@H](C)O1 [DOXORUBICIN] |  | 0.6 |  | 0.8 |  | 0.5 |  | 0.11 | 2.1 | 
9 |  |  |  | c1ccc2[nH]c(-c3ccc(-c4nc5ccccc5[nH]4)cc3)nc2c1 | 17.4 |  | 53.1 |  | 63.3 |  | 59.6 |  |  | 
10 |  |  |  | Clc1ccc2nc(-c3cccc(-c4nc5ccc(Cl)cc5[nH]4)c3)[nH]c2c1 | 98.4 | 23.7 | 82.4 | 25.9 | 90.5 | 10.7 | 95.6 | 13.7 | 9.1 | 
11 |  |  |  | c1ccc(-c2nc3ccccc3[nH]2)cc1 | 11.6 |  | 1.2 |  | 25.5 |  | 8.1 |  |  | 
12 |  |  |  | c1ccc(-c2nc3ccccc3[nH]2)c(-c2nc3ccccc3[nH]2)c1 | 3.6 |  | -6 |  | 11.6 |  | 24.9 |  |  | 
13 | 67 | 9.59 ×10⁻² mol% | 1.27 | FC(F)(F)c1ccc2nc(-c3cccc(-c4nc5ccc(C(F)(F)F)cc5[nH]4)c3)[nH]c2c1 | 100 | 8.9 | 99.3 | 12.8 | 98.8 | 8 | 100 | 10.9 | 6.6 | Ka [22]: 4.52 ×10³ /M; Activity (HeLa [14]): Active; Activity (MCF7 [16]): Active; Activity (HeLa [18]): Active
